US12503426B2, “Synthetic derivatives of oleoyl-lysophosphatidylinositol (oleoyl-LPI) and uses thereof” (LIPOVEXA SRL, priority 2017, dated 2025)

Columns and labels:
ERK = ERK phosphorylation by Western blot, Glutag cells; type: cell-based, murine; conditions: time course over 2 hours
Method: When cell cultures reached 80-90%, media were removed and cells were washed twice with 1×PBS. The cells were lysed in 150 μl (for one well of a 6 well plate) of Triton X-100 lysis buffer, containing phosphatase inhibitor cocktail (1:1000) (Sigma Aldrich, UK) and protease inhibitor (1:1000, Sigma Aldrich, UK). Cells were detached with scrapers and lysate were collected and centrifuged at 10,000 rpm, 4° C. for 5 minutes. The supernatant was then transferred to a 1.5 ml microcentrifuge tube and used for protein quantification. Cell lysates were stored at −20° C. for longer storage. All lysates were prepared on ice.
Non-specific antibody binding was prevented by incubating the nitrocellulose membrane in 5% milk in PBS-0.05% Tween-20 (v/v) for 30 minutes on a rotating plate. The membrane was then washed in PBS-0.05% Tween-20 (v/v) and then incubated with the primary antibody diluted in PBS-0.05% Tween-20 (v/v) on a rotating plate overnight at 4° C. After 24 hours, the membrane was washed 5× for 5 minutes with PBS-0.05% Tween-20 (v/v), and then incubated on a rotating plate with the appropriate secondary antibody for 1 hour at room temperature. […]

Glutag cells = test: GLP-1 secretion by Glutag cells; type: cell-based, murine; conditions: 2 hours
How it was run: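 Murine GLUTag and human NCI-H716 L-cells were incubated 2 h in FBS-free DMEM with LPI species, OEA or LPC, with optional 1 h pretreatment with PD98059 (50 μM) or H89 (10 μM). Total medium GLP-1 was measured by ELISA and normalised to basal control secretion.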

[1] = test system: primary culture of mixed colonic preparations; test: GLP-1 secretion by mixed primary colonic culture; type: cell-based, mice
Description: Mice were euthanized, and 5 cm of colon were used for isolation of epithelial cells following as previously described by Reimann, F., Habib, A. M., Tolhurst, G., Parker, H. E., Rogers, G. J., & Gribble, F. M. (2008), Cell Metabolism, Vol 8(6), pp 532-539, the disclosure of which is incorporated herein by reference in its entirety. Briefly, colon segments were dissected from 10 week-old C57BL/6 male mice. Segments were cut open longitudinally and washed quickly in DMEM (serum-free) to remove luminal contents. Colon was chopped into about 1-2 mm pieces and digested with about 0.5 mg/ml collagenase-P for 15 min. Resulting cell suspensions were filtered through 70 μm nylon cell strainers (BD Falcon, UK), centrifuged at 300 g for 5 min, and pellets re-suspended in DMEM supplemented with 10% FBS. The purified cells were collected and cultured on 24-well Matrigel-coated plates at 37° C. in DMEM (25 mM glucose), 10% FBS, 2 mM L-glutamine, 1% penicillin/streptomycin. On the day of GLP-1 assay, cells were washed twice with PBS, and then treated with LPI or vehicle Methanol: Chloroform, (M:C), v/v for 2 h at 37° C. Supernatants were collected for GLP-1 quantification using the active GLP-1 ELISA kit from Millipore. […]

Q: Which results are given for “oleoyl-lysophosphatidylinositol [oleoyl-LPI]”?
A: p-ERK, time course (ERK): increased p-ERK within 10 min and sustained a high level for 120 min; GLP-1 secretion (Glutag cells; Glutag cells, normalised as percentage of cells treated with vehicle (control)): 126±5%; effect of down-regulation of GPR55 on GLP-1 secretion (Glutag cells; siGPR55 transfected Glutag cells, oleoyl-LPI 20 μM): no effect on GLP-1 secretion; GLP-1 secretion in siGPR119-transfected cells (Glutag cells; siGPR119 transfected Glutag cells, oleoyl-LPI 20 μM): significantly reduced the GLP-1 secretion to the basal level; GLP-1 release ([1]; GPR119−/− mice compared to wild type control): unable to induce GLP-1 release; GLP-1 levels, from the basal secretion ([1]; wild type mice, two hours treatment): 131±32%
